Experimental data from patent US20110097274A1, “Carbon-11 and fluorine-18 labeled radioligands for positron emission tomography (PET) imaging for the brain serotonin transporters” (priority 2002, published 2011).
Several values for one entry are separate records, joined by “and”; a condition that tells them apart may be missing. Identical values can stand only once. Like-named read-outs stand apart in the source and are kept apart here.

Columns and labels:
[1] = Plasma free fraction (f1) and filter retention by ultrafiltration; assay type: in vitro ADME, baboon; details: mean ± SD of four experiments
Procedure: Plasma and ultrafiltrate activities were counted, and f1 was calculated as the ratio of ultrafiltrate activity to total plasma activity. Triplicate aliquots of the radioligand in pH 7.4 Tris buffer were also processed to determine the filter retention of free tracer.

SERT = test: Baboon PET imaging: brain uptake, kinetic analysis and SERT parameters; assay type: in vivo; details: for Kp: male, baboon, brain, intravenous
In short: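 Two isoflurane-anaesthetised adult male baboons, each radioligand tested twice (test-retest); i.v. bolus, 91 min 3D emission scan with arterial sampling, MRI-defined regions. Brain uptake as % ID g^−1, with peak time and washout; VT from one-tissue compartment model (K1/k2) using arterial plasma input.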

[2] = BP = VT ROI − VT CER, baboons, mean ± SD of four experiments
[3] = Mean ± SD of four experiments in two baboons
[4] = baboons, mean ± SD of four experiments
[5] = last scan 90 minutes, baboons, mean ± SD of four experiments
[6] = one-tissue compartment model, baboons, mean ± SD of four experiments

CN(C)Cc1ccccc1Sc1ccc(C#N)cc1N [[^11C]DASB]
Filter retention ([1]; activity remaining on filter, radioligand dissolved in saline): 19.2 ± 4.7% | fraction unbound at 20 minutes ([1]; male, baboon plasma, ultrafiltration): 0.135 ± 0.017 | Binding potential Cingulate Cortex (SERT; [2]): 3.8 ± 0.8 mL/g | Binding potential Hippocampus (SERT; [2]): 10.0 ± 1.3 mL/g | Binding potential Midbrain (SERT; [2]): 29.1 ± 4.0 mL/g | Binding potential Occipital Cortex (SERT; [2]): 2.0 ± 1.1 mL/g | Binding potential Striatum (SERT; [2]): 14.4 ± 1.5 mL/g | Binding potential Temporal Cortex (SERT; [2]): 5.1 ± 1.9 mL/g | Binding potential Thalamus (SERT; [2]): 30.2 ± 4.9 mL/g | Equilibrium specific to non-specific partition coefficient (V3″) Cingulate Cortex (SERT; Baboon A, single experiment): 0.26 and 0.25 | Equilibrium specific to non-specific partition coefficient (V3″) Hippocampus (SERT; Baboon A, single experiment): 0.48 and 0.65 | Equilibrium specific to non-specific partition coefficient (V3″) Midbrain (SERT; Baboon A, single experiment): 1.46 and 1.66 | Equilibrium specific to non-specific partition coefficient (V3″) Occipital Cortex (SERT; Baboon A, single experiment): 0.15 and 0.18 | Equilibrium specific to non-specific partition coefficient (V3″) Striatum (SERT; Baboon A, single experiment): 0.72 and 0.89 | Equilibrium specific to non-specific partition coefficient (V3″) Temporal Cortex (SERT; Baboon A, single experiment): 0.34 and 0.42 | Equilibrium specific to non-specific partition coefficient (V3″) Thalamus (SERT; Baboon A, single experiment): 1.42 and 1.68 | Equilibrium specific to non-specific partition coefficient (V3″) Cingulate Cortex (SERT; Baboon B, single experiment): 0.21 and 0.16 | Equilibrium specific to non-specific partition coefficient (V3″) Hippocampus (SERT; Baboon B, single experiment): 0.62 and 0.54 | Equilibrium specific to non-specific partition coefficient (V3″) Midbrain (SERT; Baboon B, single experiment): 1.64 and 1.96 | Equilibrium specific to non-specific partition coefficient (V3″) Striatum (SERT; Baboon B, single experiment): 0.83 and 0.87 | Equilibrium specific to non-specific partition coefficient (V3″) Temporal Cortex (SERT; Baboon B, single experiment): 0.21 | Equilibrium specific to non-specific partition coefficient (V3″) Thalamus (SERT; Baboon B, single experiment): 1.79 and 2.07 | Equilibrium specific to non-specific partition coefficient (V3″) Cingulate Cortex (SERT; [3]): 0.22 ± 0.04 | Equilibrium specific to non-specific partition coefficient (V3″) Hippocampus (SERT; [3]): 0.58 ± 0.08 | Equilibrium specific to non-specific partition coefficient (V3″) Midbrain (SERT; [3]): 1.68 ± 0.21 | Equilibrium specific to non-specific partition coefficient (V3″) Occipital Cortex (SERT; [3]): 0.11±0.06 | Equilibrium specific to non-specific partition coefficient (V3″) Striatum (SERT; [3]): 0.83 ± 0.08 | Equilibrium specific to non-specific partition coefficient (V3″) Temporal Cortex (SERT; [3]): 0.29 ± 0.10 | Equilibrium specific to non-specific partition coefficient (V3″) Thalamus (SERT; [3]): 1.74 ± 0.27 | K1, average of all regions and all animals (SERT; baboons): 1.21 ± 0.22 mL/g/min | k2, average of all regions and all animals (SERT; baboons): 0.047 ± 0.018 min⁻¹ | V3″ expressed in percentage of [^11C]McN 5652 V3″ (SERT; baboons, combining all regions): 142±29% | Mean regional peak uptake time (SERT; baboons, mean of all regions): 19 ± 9 min | Mean regional wash-out (% decrease between peak time and last scan) (SERT; baboons, mean of all regions): 52±19% | Regional uptake peak time Cerebellum (SERT; [4]): 12 ± 5 min | Regional uptake peak time Cingulate Cortex (SERT; [4]): 14 ± 3 min | Regional uptake peak time Hippocampus (SERT; [4]): 22 ± 10 min | Regional uptake peak time Midbrain (SERT; [4]): 27 ± 13 min | Regional uptake peak time Occipital Cortex (SERT; [4]): 16 ± 4 min | Regional uptake peak time Striatum (SERT; [4]): 22 ± 10 min | Regional uptake peak time Temporal Cortex (SERT; [4]): 19 ± 5 min | Regional uptake peak time Thalamus (SERT; [4]): 24 ± 10 min | Total brain uptake at 45 min (SERT; baboons, region encompassing the entire brain): 0.013±0.002 % ID g^−1 | Regional activity wash-out: % decrease from peak to last scan, Cerebellum (SERT; [5]): 68 ± 14% | Regional activity wash-out: % decrease from peak to last scan, Cingulate Cortex (SERT; [5]): 64 ± 10% | Regional activity wash-out: % decrease from peak to last scan, Hippocampus (SERT; [5]): 46 ± 19% | Regional activity wash-out: % decrease from peak to last scan, Midbrain (SERT; [5]): 32 ± 19% | Regional activity wash-out: % decrease from peak to last scan, Occipital Cortex (SERT; [5]): 65 ± 11% | Regional activity wash-out: % decrease from peak to last scan, Striatum (SERT; [5]): 49 ± 18% | Regional activity wash-out: % decrease from peak to last scan, Temporal Cortex (SERT; [5]): 58 ± 13% | Regional activity wash-out: % decrease from peak to last scan, Thalamus (SERT; [5]): 36 ± 16% | Kp (SERT; cingulate cortex, one-tissue compartment model, baboons, mean ± SD of four experiments, read-out: VT Cingulate Cortex): 21.1 ± 0.9 | Kp (SERT; hippocampus, one-tissue compartment model, baboons, mean ± SD of four experiments, read-out: VT Hippocampus): 27.3 ± 1.4 | Kp (SERT; midbrain, one-tissue compartment model, baboons, mean ± SD of four experiments, read-out: VT Midbrain): 46.4 ± 4.3 | Kp (SERT; occipital cortex, one-tissue compartment model, baboons, mean ± SD of four experiments, read-out: VT Occipital Cortex): 19.3 ± 1.5 | Kp (SERT; striatum, one-tissue compartment model, baboons, mean ± SD of four experiments, read-out: VT Striatum): 31.7 ± 1.7 | Kp (SERT; temporal cortex, one-tissue compartment model, baboons, mean ± SD of four experiments, read-out: VT Temporal Cortex): 22.5 ± 2.1 | Kp (SERT; thalamus, one-tissue compartment model, baboons, mean ± SD of four experiments, read-out: VT Thalamus): 47.5 ± 5 | K1 Cerebellum (SERT; [6]): 1.36 ± 0.24 mL/g/min | K1 Cingulate Cortex (SERT; [6]): 1.26 ± 0.09 mL/g/min | K1 Hippocampus (SERT; [6]): 0.98 ± 0.20 mL/g/min | K1 Midbrain (SERT; [6]): 1.23 ± 0.20 mL/g/min | K1 Occipital Cortex (SERT; [6]): 1.15 ± 0.24 mL/g/min | K1 Striatum (SERT; [6]): 1.27 ± 0.21 mL/g/min | K1 Temporal Cortex (SERT; [6]): 1.05 ± 0.09 mL/g/min | K1 Thalamus (SERT; [6]): 1.35 ± 0.29 mL/g/min | K2 Cerebellum (SERT; [6]): 0.078 ± 0.013 min⁻¹ | K2 Cingulate Cortex (SERT; [6]): 0.060 ± 0.004 min⁻¹ | K2 Hippocampus (SERT; [6]): 0.036 ± 0.006 min⁻¹ | K2 Midbrain (SERT; [6]): 0.027 ± 0.005 min⁻¹ | K2 Occipital Cortex (SERT; [6]): 0.059 ± 0.011 min⁻¹ | K2 Striatum (SERT; [6]): 0.040 ± 0.007 min⁻¹ | K2 Temporal Cortex (SERT; [6]): 0.047 ± 0.004 min⁻¹ | K2 Thalamus (SERT; [6]): 0.028 ± 0.006 min⁻¹ | VT Cerebellum (VT CER, nonspecific distribution volume) (SERT; [6]): 17.3 ± 0.5 mL/g
